Data published in ChEMBL document CHEMBL1126820, “4-alkylamino-3-bromo-N-alkyl-1,8-naphthalimides: new photochemically activatable antiviral compounds” (1993).

Columns and labels:
[1] = test system: Human immunodeficiency virus 1; assay: Concentration required for Photoinactivation of cell-associated HIV-1; type: functional
[2] = test system: Human immunodeficiency virus 1; assay: Concentration required for Photoinactivation of cell-free HIV-1; type: functional, organism-based
[3] = Concentration required for Photoinactivation of enveloped viruses; type: functional
[4] = test system: Human alphaherpesvirus 1; assay: Photoinactivation against simplex virus type 1; type: functional

Row | SMILES | Activity [1] [nM] | Activity [2] [µM] | Activity [3] [µM] | Activity [4] [nM]
1 | CCCCCCN1C(=O)c2cccc3c(NCCNC(=O)CCCCC(=O)NCCNc4c(Br)cc5c6c(cccc46)C(=O)N(CCCCCC)C5=O)c(Br)cc(c23)C1=O | 300 | 1 | 0.1 | <500
2 | CCCCCCCCNc1c(Br)cc2c3c(cccc13)C(=O)N(CCCCCCCC)C2=O |  |  | 0.1 | 
3 | CCCCCCNc1c(Br)cc2c3c(cccc13)C(=O)N(CCCCCC)C2=O |  |  | 0.1 | 
4 | CCCCNc1c(Br)cc2c3c(cccc13)C(=O)N(CCCC)C2=O |  |  | 0.1 | 
